Consider 2 compounds from patent US6960592B2, “1,6-dihydro-7H-pyrazolo[4,3-d]pyrimidin-7-one compound for the treatment of impotence” (priority 2001, dated 2005).

One data set has as its system rats with testis removed. Description: Penis erection test in rats with testis removed. Format: in vivo. An excerpt: Test 1. Penis erection test of the compound formula (I′) in rats with testis removed
The subject of a further data set is mice with testis removed. As to the kind of experiment: Effect on the sexual function in mice with testis removed. Format: in vivo. From the text:
Test 2. Effect of the compound of formula (I′) on the sexual function in mice with testis removed

Data set [1] can be described thus: Toxicity test, LD50 by Bliss method, oral gavage. The conditions noted are these: mouse, in vivo, mice, orally by gavage, confidence limit of 95% 772.5-1052.1 mg/kg, read-out: half-lethal dosage (LD50). As for the experimental part: The confidence limit of 95% is 772.5-1052.1 mg/kg.
A further data set has as its system male mice. Conditions: orally, single dose, from Chinese Journal of Clinical Pharmacology and Therapeutics 1999, 4(3), 237-240; cited from earlier work.

SMILES strings stand for the structures.

Consider `CCCc1nn(C)c2c(=O)[nH]c(-c3cc(S(=O)(=O)N4C[C@@H](C)N[C@@H](C)C4)ccc3OCC)nc12` [compound of formula (I′), 5-[[2-ethoxy-5-(cis-2,6-dimethylpiperazin-4-ylsulphonyl)phenyl]]-1-methyl-3-n-propyl-7,6-dihydro-1H-pyrazolo[4,3-d]pyrimidin-7-one], for which the “latent period of penis erection by electric irritation (10V)” value is recorded as “significantly shortened” in the data set with rats with testis removed (dosage 12 mg/kg, P<0.01) and “significantly shortened” with rats with testis removed (dosage 24 mg/kg, P<0.05). The “latent period which male mice catch female mice” value with mice with testis removed (dosage 12 mg/kg, P<0.01) was “significantly shortened”; with mice with testis removed (dosage 24 mg/kg, P<0.05), “significantly shortened”. The “times of back-climbing on female mice by male mice (times of sexual intercourse)” value is reported as “significantly increased” with mice with testis removed (dosage 12 mg/kg, P<0.01) and “significantly increased” with mice with testis removed (dosage 24 mg/kg, P<0.05). In data set [1], the LD50 is 902 mg/kg.

Regarding `CCCc1nn(C)c2c(=O)[nH]c(-c3cc(S(=O)(=O)N4CCN(C)CC4)ccc3OCC)nc12` [sildenafil, 1-[4-ethoxy-3-(6,7-dihydro-1-methyl-7-oxo-3-propyl-1H-pyrazolo[4,3-d]pyrimidin-5-yl)phenylsulphonyl]-4-methylpiperazine, reference compound], the “latent period of penis erection by electric irritation (10V)” value in the data set on rats with testis removed (sildenafil comparator, dose not given, P<0.01) is reported as “significantly shortened”. For the same compound, the LD50 in the data set on male mice was 625 mg/kg.
